Key:
[1] = biological target: T1, 5-HT3A M3M4 loop AAPARAA construct (Mus musculus, UniProt P23979); assay: Two-electrode voltage clamp, oocytes expressing AAPARAA loop construct; format: cell-based; details: 10 µM 5-HT, Xenopus oocytes
T1 construct: expressed in transfected cells; host or cells: Xenopus laevis oocytes injected with mRNA
From the text: (§1) The mouse 5-HT3A cDNA with an N-terminal V5 epitope tag was cloned into the pXOON vector as previously described, and is referred to in this paper as “wild-type” (WT). The starting construct for all of the M3M4 loop replacement constructs used in this work was the 5-HT3A-ΔM3M4 construct formed by splicing the cytoplasmic end of M3 (M3-LVHK/QDLQRP…) to the cytoplasmic end of M4 (…WLRVGY/VLDRLL-M4). The splice was made at the site of the “/” to yield the sequence M3-LVHK/VLDRLL-M4 [34]. This removed 115 residues predicted to form the M3M4 loop.
The construction of the 5-HT3A-glvM3M4 chimera with the 5-HT3A M3M4 loop replaced by the GLIC heptapeptide M3M4 loop (SQPARAA) was described previously. Point mutations, alanine and Gly-Ser-Ala insertions into the 5-HT3A-ΔM3M4 construct were generated with the Quikchange site directed mutagenesis procedure (Stratagene, La Jolla, CA). […]
Currents were recorded under two-electrode voltage clamp from oocytes 2–5 d post-injection as described previously. […]
Desensitization rates were determined by fitting a single exponential decay function to the current data with Prism 4 software (GraphPad Software). Significant differences compared with wild-type were determined by a one-way ANOVA (p<0.05) using Dunnett's multiple comparison post-hoc test (p<0.05). […]

[2] = biological target: T2, 5-HT3A receptor wild-type (WT, V5-tagged) (Mus musculus, UniProt P23979); assay: Two-electrode voltage clamp, 5-HT-induced currents in oocytes expressing wild-type 5-HT3A; format: cell-based; details: wildtype
T2 construct: unrelated to the structural/functional states accessible to a normal full-length 5-HT3A receptor; expressed in transfected cells; host or cells: Xenopus laevis oocytes injected with mRNA
T2 sequence (P23979 24-483 isoform P23979-2 limits assumed): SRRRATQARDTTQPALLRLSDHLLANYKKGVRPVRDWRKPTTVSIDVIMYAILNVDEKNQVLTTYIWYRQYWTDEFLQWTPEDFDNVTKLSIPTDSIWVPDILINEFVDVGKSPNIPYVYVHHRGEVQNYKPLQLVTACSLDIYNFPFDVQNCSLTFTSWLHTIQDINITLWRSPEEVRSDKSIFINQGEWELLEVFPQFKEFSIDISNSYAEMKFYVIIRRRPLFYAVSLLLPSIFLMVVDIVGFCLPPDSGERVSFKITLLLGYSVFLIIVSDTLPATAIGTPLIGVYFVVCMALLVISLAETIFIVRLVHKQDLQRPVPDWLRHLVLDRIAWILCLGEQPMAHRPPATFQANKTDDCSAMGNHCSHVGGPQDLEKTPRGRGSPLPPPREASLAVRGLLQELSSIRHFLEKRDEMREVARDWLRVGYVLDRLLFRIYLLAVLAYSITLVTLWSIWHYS
Experimental: The mouse 5-HT3A cDNA with an N-terminal V5 epitope tag was cloned into the pXOON vector as previously described [34], and is referred to in this paper as “wild-type” (WT).
Currents were recorded under two-electrode voltage clamp from oocytes 2–5 d post-injection as described previously [37]. […] The perfusion chamber volume was 200 µl. A 3 M KCl/agar bridge connected the ground electrode to the bath. The holding potential was maintained at −60 mV. […] Salts were purchased from Fisher Scientific (Hampton, NH) or Sigma-Aldrich.
Desensitization rates were determined by fitting a single exponential decay function to the current data with Prism 4 software (GraphPad Software). Significant differences compared with wild-type were determined by a one-way ANOVA (p<0.05) using Dunnett's multiple comparison post-hoc test (p<0.05). […] One way ANOVA (P<0.05) with post hoc Dunnett's Multiple Comparison test was performed using Prism 5.0 (Graphpad software.)

[3] = biological target: T3, 5-HT3A-A6 (M3M4 loop replaced by six alanines) (Mus musculus, UniProt P23979)
T3 sequence (P23979 with tags, fused parts or gaps isoform P23979-2 limits assumed): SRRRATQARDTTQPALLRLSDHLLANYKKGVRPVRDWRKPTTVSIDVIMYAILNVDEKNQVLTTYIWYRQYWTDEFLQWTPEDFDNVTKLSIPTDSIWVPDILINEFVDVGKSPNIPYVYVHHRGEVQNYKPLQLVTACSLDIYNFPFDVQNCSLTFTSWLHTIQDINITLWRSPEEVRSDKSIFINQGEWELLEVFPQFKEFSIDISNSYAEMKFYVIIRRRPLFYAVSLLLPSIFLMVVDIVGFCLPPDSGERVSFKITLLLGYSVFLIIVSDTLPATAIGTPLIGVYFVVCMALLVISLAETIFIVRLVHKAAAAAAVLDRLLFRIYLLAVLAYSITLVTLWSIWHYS
From the text: as §1
(§2) The construction of the 5-HT3A-glvM3M4 chimera with the 5-HT3A M3M4 loop replaced by the GLIC heptapeptide M3M4 loop (SQPARAA) was described previously. Point mutations, alanine and Gly-Ser-Ala insertions into the 5-HT3A-ΔM3M4 construct were generated with the Quikchange site directed mutagenesis procedure (Stratagene, La Jolla, CA). The entire coding region of all mutant constructs was verified by DNA sequencing (Albert Einstein College of Medicine DNA Sequencing Facility). The pXOON plasmid was linearized using NheI and capped mRNA prepared with T7 RNA polymerase (mMessage mMachine, Ambion, Austin, TX).
(§3) Use of Xenopus laevis in this study was carried out in strict accordance with the recommendations in the Guide for the Care and Use of Laboratory Animals of the National Institutes of Health. The protocol was approved by the Albert Einstein College of Medicine Animal Care and Use Committee (Protocol Number: 20081201). All surgery was performed under tricaine anesthesia, and all efforts were made to minimize suffering. Oocyctes were harvested from Xenopus (Nasco Science, Fort Atkinson, WI) anesthetized with 0.15% tricaine. Oocyctes were defolliculated by incubation in 2 mg ml^−1 Type 1A collagenase (Sigma-Aldrich, St. Louis, MO) in OR2 (85 mM NaCl, 2 mM KCl, 1 mM MgCl2, and 5 mM HEPES; pH adjusted to 7.5 with NaOH) for a 60 or 75 min. Oocytes were washed in OR2 and stored at 16°C in SOS medium: 100 mM NaCl, 2 mM KCl, 1 mM MgCl2, 1.8 mM CaCl2 5 mM HEPES, pH 7.5 with 100 IU ml^−1 penicillin, 100 µg ml^−1 streptomycin, and 250 ng ml^−1 amphotericin B (Invitrogen, Carlsbad, CA) and 5% horse serum (Sigma-Aldrich). 24 hrs following isolation, oocyctes were injected with 23 nl (2.3 ng) of mRNA and were kept in SOS media for 2–5 d at 16°C.
(§4) Currents were recorded under two-electrode voltage clamp from oocytes 2–5 d post-injection as described previously. […] The perfusion chamber volume was 200 µl. A 3 M KCl/agar bridge connected the ground electrode to the bath. The holding potential was maintained at −60 mV. […] Salts were purchased from Fisher Scientific (Hampton, NH) or Sigma-Aldrich.
(§5) Desensitization rates were determined by fitting a single exponential decay function to the current data with Prism 4 software (GraphPad Software). Significant differences compared with wild-type were determined by a one-way ANOVA (p<0.05) using Dunnett's multiple comparison post-hoc test (p<0.05). […]

[4] = biological target: T4, 5-HT3A-A7 (M3M4 loop replaced by seven alanines) (Mus musculus, UniProt P23979)
T4 sequence (P23979 with tags, fused parts or gaps isoform P23979-2 limits assumed): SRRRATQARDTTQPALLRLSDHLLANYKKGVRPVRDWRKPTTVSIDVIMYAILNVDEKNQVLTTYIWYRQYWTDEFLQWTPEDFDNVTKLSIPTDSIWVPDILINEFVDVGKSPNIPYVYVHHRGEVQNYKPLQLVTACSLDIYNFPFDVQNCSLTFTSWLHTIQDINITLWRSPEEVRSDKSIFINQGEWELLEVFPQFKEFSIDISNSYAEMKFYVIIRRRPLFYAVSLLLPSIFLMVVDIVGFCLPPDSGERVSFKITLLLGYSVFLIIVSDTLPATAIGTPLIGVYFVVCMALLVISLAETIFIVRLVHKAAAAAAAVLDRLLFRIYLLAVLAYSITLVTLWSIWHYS
From the text: as §1, §2, §3, §4, §5

T1 sequence (P23979 with tags, fused parts or gaps): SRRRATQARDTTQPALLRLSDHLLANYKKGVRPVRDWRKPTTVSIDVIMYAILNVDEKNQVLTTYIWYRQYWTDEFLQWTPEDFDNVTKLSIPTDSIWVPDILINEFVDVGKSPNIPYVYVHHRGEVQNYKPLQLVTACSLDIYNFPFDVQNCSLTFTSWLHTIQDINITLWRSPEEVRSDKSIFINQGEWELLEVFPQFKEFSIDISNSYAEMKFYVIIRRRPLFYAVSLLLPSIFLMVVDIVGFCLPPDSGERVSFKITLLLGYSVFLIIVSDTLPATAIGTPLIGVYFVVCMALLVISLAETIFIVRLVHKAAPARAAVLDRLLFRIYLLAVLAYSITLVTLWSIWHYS

## NCCc1c[nH]c2ccc(O)cc12 [5-HT, 5-hydroxytryptamine]
[1]
  Channel function (5-HT induced current): non-functional channels
[2]; 10 µM 5-HT
  10–90% Activation rise time: 587 ± 51 ms
[2]; 10 µM 5-HT (saturating), Xenopus oocytes, -60 mV
  Imax (peak current): 7300±700 nA
[2]; prolonged 10 µM 5-HT, Ca-free buffer
  Desensitization time constant τ: 77 ± 18 s
[3]; 10 µM 5-HT
  10–90% Activation rise time: 1017 ± 23 ms
[3]; 10 µM 5-HT, Xenopus oocytes, -60 mV
  Imax (peak current): 6400±1100 nA
[3]; prolonged 10 µM 5-HT
  Desensitization time constant τ: 77 ± 6 s
[4]
  nH (Hill coefficient): 3.7±0.8
[4]; 10 µM 5-HT
  10–90% Activation rise time: 881 ± 110 ms
[4]; prolonged 10 µM 5-HT
  Desensitization time constant τ: 62 ± 4 s
